In patent US5763435A, “Sulfate conjugates of ursodeoxycholic acid, and their beneficial use in inflammatory disorders” (priority 1995, dated 1998):
“And” between values parts separate entries of the source, which are not always exact repeats. Equal values may be shown once.

Key:
bile-flow = assay: Bile-flow and bile acid secretion during i.v. infusion; assay type: in vivo, Sprague-Dawley rats; details: for Bile flow, maximum / Bile salt output (biliary bile acid secretion rate), maximum: i.v. infusion 0.5, 1.0, 2.0 μmol/min/100 g, mean ± SEM, six animals; for Apparent choleretic activity (slope of regression line): bile acid secretion rate vs bile-flow
Method: (§1) Adult male Sprague-Dawley rats (body weight 200-230 g) were anesthetized by an intraperitoneal injection of pentobarbital (Nembutal, 7.5 mg/100 g body weight), and maintained under sedation by additional doses. The right jugular vein and the common bile duct were cannulated using PE-50 polyethylene tubing (Clay-Adams, Parsippany, N.J.). Body temperature was maintained throughout the experiment at 37° C. using a rectal probe and a thermostatically controlled heating pad (Harvard Apparatus Co., Inc., Millis, Mass.). Saline was infused at a rate of 1.0 ml/h using a Harvard pump (Harvard Apparatus Co., Inc.) into the jugular vein for a control period of 2h. After collecting two 10 minute bile samples for base-line analysis, the bile acids were individually infused intravenously (i.v.) for 30 minutes in stepwise increasing doses (0.5, 1.0, and 2.0 μmol/min/100 g body weight). Bile acid solutions were prepared in 3% human albumin in 0.45% saline. Six animals were used for each experiment and bile was collected every 10 minutes into preweighed tubes. At the end of the experiment, blood was obtained by cardiac puncture, and urine was obtained by aspiration of the bladder. All biological specimens were stored at -20° C. This animal study protocol (#1 B 10044) was approved by the Bioethics committee of the Children's Hospital Medical Center (Cincinnati, Ohio).
Bile volume was determined gravimetrically assuming a density of 1 g/ml. Total 3α-hydroxy bile acid concentration in the bile was measured enzymatically before solvolysis (nonsulfated bile acids) and after solvolysis (total bile acids) (Mashige, F., et al., Direct spectrometry of total bile acids in serum. Clin. Chem. 27: 1352-1356 (1981)). The bile acid output was calculated by multiplying the rate of bile-flow by the bile acid concentration. Biliary phospholipids were determined by an enzymatic procedure based on the choline oxidase method (Nippon Shoji Kaisha, Ltd., Osaka, Japan) (Grantz, D., et al., Enzymatic measurement of choline-containing phospholipids in bile. J. Lipid Res. 22: 273-276 (1981)). Cholesterol was also measured enzymatically (Boehringer Mannehim, Indianapolis, Ind.) (Fromm, H., et al., Use of a simple enzymatic assay for cholesterol analysis in human bile. J. Lipid Res. 21: 259-261 (1980)).
Results were expressed as mean±standard error of mean (SEM). Bile-flow and biliary lipid output were expressed as μl /min/g liver and nmol/min/g liver, respectively. Statistical analysis was made using INSTAT program (Graphpad Software Inc., San Diego, Calif.). Parametric data among groups were analyzed using Student's t-test. The statistical comparisons between the different groups were made by one-way analysis of variance (ANOVA). […] Linear regression analysis was performed. The choleretic activity of each bile acid was determined from the slope of regression line of the correlation between the bile acid secretion rate and bile-flow and was expressed as […]. Comparisons between slopes were made by one-way ANOVA.

[1] = tested on: bile acids secreted in bile; assay: Biliary bile acid composition during i.v. infusion (GC-MS); assay type: in vivo, Sprague-Dawley rats; details: for Further hydroxylation (in words): GC-MS of bile
Method: as §1
GC-MS was carried out on either a VG Autospec Q magnetic sector instrument or a Finnigan 4635 quadruple GC-MS-DS instrument housing identical GC columns and operated under the same chromatographic conditions. Electron ionization (70 eV) mass spectra were recorded over the mass range 50 to 1000 Da/e by repetitive scanning of the eluting components.
For the determination of hepatic biotransformation of the infused bile acid, bile collections from the six animal were pooled and biliary bile acids were determined by GC-MS after extraction, solvolysis, hydrolysis, and derivatization. Quantification of bile acids was achieved using GC, by comparing the peak height response of the individual bile acid with the peak height response obtained from the internal standard, nordeoxycholic acid added to the initial sample of bile. Identification of a bile acid was made on the basis of the retention index relative to a homologous series of n-alkanes, referred to as the methylene unit value (MU) and the fragmentation pattern of the mass spectrum was compared with authentic standards. A list of over 100 mass spectra of authentic bile acid standards and retention indices was recently compiled as a reference source (Lawson, A. M., et al, Mass spectrometry of bile acids, The Bile Acids, Vol. 4, Methods and Applications, pp. 167-267 (1988)).

Compound	Bile flow, maximum (bile-flow)	Bile salt output (biliary bile acid secretion rate), maximum (bile-flow)	Apparent choleretic activity (slope of regression line) (bile-flow; i.v. infusion)	Relative % composition in bile: CA ([1]; 20-30 mins)	Relative % composition in bile: CDCA ([1]; 20-30 mins)	Relative % composition in bile: DCA ([1]; 20-30 mins)	Relative % composition in bile: MCA ([1]; 20-30 mins)	Relative % composition in bile: UDCA ([1]; 20-30 mins)	Relative % composition in bile: α-MCA ([1]; 20-30 mins)	Relative % composition in bile: β-MCA ([1]; 20-30 mins)	Relative % composition in bile: CA ([1]; 50-60 mins)	Relative % composition in bile: CDCA ([1]; 50-60 mins)	Relative % composition in bile: DCA ([1]; 50-60 mins)	Relative % composition in bile: MCA ([1]; 50-60 mins)	Relative % composition in bile: UDCA ([1]; 50-60 mins)	Relative % composition in bile: α-MCA ([1]; 50-60 mins)	Relative % composition in bile: β-MCA ([1]; 50-60 mins)	Relative % composition in bile: CA ([1]; 80-90 mins)	Relative % composition in bile: CDCA ([1]; 80-90 mins)	Relative % composition in bile: UDCA ([1]; 80-90 mins)	also measured
C[C@H](CCC(=O)O)[C@H]1CC[C@H]2[C@@H]3[C@@H](O)C[C@@H]4C[C@H](O)CC[C@]4(C)[C@H]3CC[C@]12C [UDCA, 3 alpha, 7 beta-dihydroxy-5 beta-cholan-24oic acid, reference compound]	4.88 ± 0.16 μl/min/g liver	145.10 ± 17.30 nmol/min/g liver and 145.1±17.3 nmol/min/g liver	16 ± 2 µL/µmol	49.0%	3.0%	1.0%	1.0%	51.9%	4.3%	17.2%	21.4%	2.5%	0.5%	0.5%	65.9%	3.9%	12.6%	9.8%	1.5%	79.5%	Relative % composition in bile: others ([1]; 20-30 mins): 14.6%; Relative % composition in bile: others ([1]; 50-60 mins): 13.7%; Relative % composition in bile: DCA ([1]; 80-90 mins): 0.7%; Relative % composition in bile: others ([1]; 80-90 mins): 11.9%; Relative % composition in bile: α-MCA ([1]; 80-90 mins): 6.4%; Relative % composition in bile: β-MCA ([1]; 80-90 mins): 9.9%; Further hydroxylation (in words) [1]: metabolized by further hydroxylation, most probably in the side-chain
C[C@H](CCC(=O)O)[C@H]1CC[C@H]2[C@@H]3[C@@H](O)C[C@@H]4C[C@H](OS(=O)(=O)O)CC[C@]4(C)[C@H]3CC[C@]12C [UDCA-3S, ursodeoxycholic acid 3-sulfate]	3.34 ± 0.13 μl/min/g liver	138.90 ± 11.80 nmol/min/g liver and 138.9±11.8 nmol/min/g liver	13 ± 1 µL/µmol	36.0%	4.6%	2.5%	4.9%	33.3%	6.2%	12.4%	14.9%	1.9%	1.0%	1.5%	70.6%	2.7%	7.4%	18.2%	2.5%	67.7%	Choleretic effect / order of maximum bile-flow (in words) (bile-flow; i.v. infusion): less effective in stimulating bile-flow than unconjugated UDCA; Relative % composition in bile: others ([1]; 20-30 mins): 5.2%; Relative % composition in bile: others ([1]; 50-60 mins): 11.5%; Relative % composition in bile: DCA ([1]; 80-90 mins): 1.3%; Relative % composition in bile: MCA ([1]; 80-90 mins): 2.0%; Relative % composition in bile: others ([1]; 80-90 mins): 11.2%; Relative % composition in bile: α-MCA ([1]; 80-90 mins): 3.0%; Relative % composition in bile: β-MCA ([1]; 80-90 mins): 5.2%; Further hydroxylation (in words) [1]: metabolized by further hydroxylation, most probably in the side-chain
C[C@H](CCC(=O)O)[C@H]1CC[C@H]2[C@@H]3[C@@H](OS(=O)(=O)O)C[C@@H]4C[C@H](O)CC[C@]4(C)[C@H]3CC[C@]12C [UDCA-7S, ursodeoxycholic acid 7-sulfate]	5.83 ± 0.31 μl/min/g liver	255.40 ± 18.20 nmol/min/g liver and 255.4±18.2 nmol/min/g liver	15 ± 1 µL/µmol	20.2%	1.7%	2.3%	1.3%	61.3%	2.5%	10.7%	7.7%	0.6%	0.7%	0.6%	83.6%	0.9%	5.9%	9.9%	0.7%	78.8%	Relative % composition in bile: DCA ([1]; 80-90 mins): 1.2%; Relative % composition in bile: MCA ([1]; 80-90 mins): 0.8%; Relative % composition in bile: α-MCA ([1]; 80-90 mins): 1.3%; Relative % composition in bile: β-MCA ([1]; 80-90 mins): 7.4%; Further hydroxylation (in words) [1]: neither UDCA-7S nor UDCA-disulfatewere hydroxylated
C[C@H](CCC(=O)O)[C@H]1CC[C@H]2[C@@H]3[C@@H](OS(=O)(=O)O)C[C@@H]4C[C@H](OS(=O)(=O)O)CC[C@]4(C)[C@H]3CC[C@]12C [UDCA-DS, ursodeoxycholic acid 3,7-disulfate]	5.92 ± 0.21 μl/min/g liver	222.40 ± 24.30 nmol/min/g liver and 222.4±24.3 nmol/min/g liver	16 ± 1 µL/µmol	24.5%	2.5%	2.1%	3.2%	54.6%	3.4%	9.7%	15.3%	0.7%	1.2%	2.2%	70.7%	2.2%	6.7%	10.6%	0.9%	79.1%	Relative % composition in bile: MCA ([1]; 80-90 mins): 1.4%; Relative % composition in bile: α-MCA ([1]; 80-90 mins): 2.6%; Relative % composition in bile: β-MCA ([1]; 80-90 mins): 6.5%; Further hydroxylation (in words) [1]: neither UDCA-7S nor UDCA-disulfatewere hydroxylated
